27 compounds from patent US10759813B2, “Neprilysin inhibitors” (THERAVANCE BIOPHARMA R&D IP, LLC, priority 2010, dated 2020) can be followed below.

Each structure is given as a SMILES string.

One may read the pKi as the negative decadic logarithm of the Ki, by convention in mol/L. In general, Ki refers to a dissociation constant, usually derived from enzyme kinetics or from competition with a known ligand.

Chain of human neprilysin (EC 3.4.24.11; NEP) (P08473 52-750): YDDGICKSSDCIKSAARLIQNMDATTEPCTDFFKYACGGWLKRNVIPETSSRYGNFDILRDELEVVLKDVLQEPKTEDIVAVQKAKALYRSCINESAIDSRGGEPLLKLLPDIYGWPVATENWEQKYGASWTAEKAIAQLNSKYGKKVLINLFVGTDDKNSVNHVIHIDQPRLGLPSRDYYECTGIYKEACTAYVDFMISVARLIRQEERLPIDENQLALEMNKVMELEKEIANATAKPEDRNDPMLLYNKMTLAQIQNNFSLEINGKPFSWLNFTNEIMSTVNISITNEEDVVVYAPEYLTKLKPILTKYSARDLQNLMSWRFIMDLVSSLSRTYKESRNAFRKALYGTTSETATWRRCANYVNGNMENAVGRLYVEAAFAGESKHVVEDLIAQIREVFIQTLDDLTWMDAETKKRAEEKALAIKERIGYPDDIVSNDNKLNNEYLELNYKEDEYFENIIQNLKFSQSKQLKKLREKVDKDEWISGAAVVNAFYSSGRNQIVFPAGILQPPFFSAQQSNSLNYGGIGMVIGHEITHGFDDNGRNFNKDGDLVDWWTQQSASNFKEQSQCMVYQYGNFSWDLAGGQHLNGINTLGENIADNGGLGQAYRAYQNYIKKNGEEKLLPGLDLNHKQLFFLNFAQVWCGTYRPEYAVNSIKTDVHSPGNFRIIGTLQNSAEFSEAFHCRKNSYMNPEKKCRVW

This experiment concerns the target human neprilysin (EC 3.4.24.11; NEP) (Homo sapiens (Human), UniProt P08473). Put plainly: In vitro enzyme inhibition assay at human NEP (fluorogenic peptide substrate). It counts as biochemical. As to conditions: pKi values at human NEP, recombinant human NEP. As for the experimental part:
In Vitro Assays for the Quantitation of Inhibitor Potencies at Human and Rat NEP, and Human ACE
The inhibitory activities of compounds at human and rat neprilysin (EC 3.4.24.11; NEP) and human angiotensin converting enzyme (ACE) were determined using in vitro assays as described below.
Recombinant human NEP and recombinant human ACE were obtained commercially (R&D Systems, Minneapolis, Minn., catalog numbers 1182-ZN and 929-ZN, respectively). The fluorogenic peptide substrate Mca-D-Arg-Arg-Leu-Dap-(Dnp)-OH (Medeiros et al. (1997) Braz. J. Med. Biol. Res. 30:1157-62; Anaspec, San Jose, Calif.) and Abz-Phe-Arg-Lys(Dnp)-Pro-OH (Araujo et al. (2000) Biochemistry 39:8519-8525; Bachem, Torrance, Calif.) were used in the NEP and ACE assays respectively.
The assays were performed in 384-well white opaque plates at 37° C. using the fluorogenic peptide substrates at a concentration of 10 μM in Assay Buffer (NEP: 50 mM HEPES, pH 7.5, 100 mM NaCl, 0.01% polyethylene glycol sorbitan monolaurate (Tween-20), 10 μM ZnSO4; ACE: 50 mM HEPES, pH 7.5, 100 mM NaCl, 0.01% Tween-20, 1 μM ZnSO4).
Test compounds were assayed over the range of concentrations from 10 μM to pM. Test compounds were added to the enzymes and incubated for 30 minute at 37° C. prior to initiating the reaction by the addition of substrate. Reactions were terminated after 20 minutes of incubation at 37° C. by the addition of glacial acetic acid to a final concentration of 3.6% (v/v).
Plates were read on a fluorometer with excitation and emission wavelengths set to 320 nm and 405 nm, respectively. Inhibition constants were obtained by nonlinear regression of the data using the equation (GraphPad Software, Inc., San Diego, Calif.): v=v0/[1+(I/K′)] where v is the reaction rate, v0 is the uninhibited reaction rate, I is the inhibitor concentration and K′ is the apparent inhibition constant.
Compounds of the invention were tested in this assay and found to have pKi values at human NEP as follows.
For `COc1ccccc1-c1cc(C(=O)N[C@H](Cc2ccc(-c3ccccc3)cc2)C[C@@H](O)C(=O)O)on1` [Example 12-13, (2R,4R)-5-Biphenyl-4-yl-2-hydroxy-4-{[3-(2-methoxy-phenyl)-isoxazole-5-carbonyl]-amino}-pentanoic acid], the negative logarithm of the Ki (pKi) is at least 9.0.

For the compound `O=C(O)c1cc(C(=O)N[C@H](Cc2ccc(-c3ccccc3)cc2)C[C@@H](O)C(=O)O)on1` [Example 12-14, 5-((1R,3R)-1-Biphenyl-4-ylmethyl-3-carboxy-3-hydroxy-propylcarbamoyl)-isoxazole-3-carboxylic acid], the Ki was 12.6 to 100 nM.

In the case of `COc1ccccc1-c1cc(C(=O)N[C@H](Cc2ccc(-c3ccccc3)cc2)C[C@@H](O)C(=O)O)no1` [Example 12-15, (2R,4R)-5-Biphenyl-4-yl-2-hydroxy-4-{[5-(2-methoxy-phenyl)-isoxazole-3-carbonyl]-amino}-pentanoic acid], the Ki is 1.26 to 10 nM.

Take `O=C(N[C@H](Cc1ccc(-c2ccccc2)cc1)C[C@@H](O)C(=O)O)c1cc(-c2ccccc2Cl)on1` [Example 12-16, (2R,4R)-5-Biphenyl-4-yl-4-{[5-(2-chlorophenyl)-isoxazole-3-carbonyl]-amino}-2-hydroxy-pentanoic acid]: the pKi is reported as at least 9.0.

Regarding `O=C(N[C@H](Cc1ccc(-c2ccccc2)cc1)C[C@@H](O)C(=O)O)c1cc(-c2ccc(Cl)cc2)on1` [Example 12-17, (2R,4R)-5-Biphenyl-4-yl-4-{[5-(4-chlorophenyl)-isoxazole-3-carbonyl]-amino}-2-hydroxy-pentanoic acid], the Ki was 1.26 to 10 nM.

For `COc1cccc(-c2cc(C(=O)N[C@H](Cc3ccc(-c4ccccc4)cc3)C[C@@H](O)C(=O)O)no2)c1` [Example 12-18, (2R,4R)-5-Biphenyl-4-yl-2-hydroxy-4-{[5-(3-methoxy-phenyl)-isoxazole-3-carbonyl]-amino}-pentanoic acid], the Ki was 1.26 to 10 nM.

`O=C(N[C@H](Cc1ccc(-c2ccccc2)cc1)C[C@@H](O)C(=O)O)c1cc(CN2CCOCC2)on1` [Example 12-19, (2R,4R)-5-Biphenyl-4-yl-2-hydroxy-4-[(5-morpholin-4-ylmethyl-isoxazole-3-carbonyl)-amino]-pentanoic acid]: the Ki was 12.6 to 100 nM.

In the case of `COc1ccc(-c2cc(C(=O)N[C@H](Cc3ccc(-c4ccccc4)cc3)C[C@@H](O)C(=O)O)no2)cc1` [Example 12-20, (2R,4R)-5-Biphenyl-4-yl-2-hydroxy-4-{[5-(4-methoxy-phenyl)-isoxazole-3-carbonyl]-amino}-pentanoic acid], the Ki is 1.26 to 10 nM.

Consider `O=C(N[C@H](Cc1ccc(-c2ccccc2)cc1)C[C@@H](O)C(=O)O)c1cc(-c2ccccc2O)on1` [Example 12-21, (2R,4R)-5-Biphenyl-4-yl-2-hydroxy-4-{[5-(2-hydroxy-phenyl)-isoxazole-3-carbonyl]-amino}-pentanoic acid], for which the pKi was at least 9.0.

Turning to `O=C(N[C@H](Cc1ccc(-c2ccccc2)cc1)C[C@@H](O)C(=O)O)c1cc(NC(=O)c2ccccc2Cl)on1` [Example 12-22, (2R,4R)-5-Biphenyl-4-yl-4-{[5-(2-chlorobenzoylamino)-isoxazole-3-carbonyl]-amino}-2-hydroxy-pentanoic acid], the pKi is given as at least 9.0.

Regarding `O=C(N[C@H](Cc1ccc(-c2ccccc2)cc1)C[C@@H](O)C(=O)O)c1cnc(-c2ccccc2)o1` [Example 12-23, (2R,4R)-5-Biphenyl-4-yl-2-hydroxy-4-[(2-phenyl-oxazole-5-carbonyl)-amino]-pentanoic acid], the Ki was 1.26 to 10 nM.

In the case of `CC(=O)Nc1ncc(C(=O)N[C@H](Cc2ccc(-c3ccccc3)cc2)C[C@@H](O)C(=O)O)s1` [Example 12-24, (2R,4R)-4-[(2-Acetylamino-thiazole-5-carbonyl)-amino]-5-biphenyl-4-yl-2-hydroxy-pentanoic acid], the Ki is 12.6 to 100 nM.

For the compound `COc1ccccc1C(=O)Nc1nc(C(=O)N[C@H](Cc2ccc(-c3ccccc3)cc2)C[C@@H](O)C(=O)O)cs1` [Example 12-25, (2R,4R)-5-Biphenyl-4-yl-2-hydroxy-4-{[2-(2-methoxy-benzoylamino)-thiazole-4-carbonyl]-amino}-pentanoic acid], the Ki was 12.6 to 100 nM.

As for `O=C(N[C@H](Cc1ccc(-c2ccccc2)cc1)C[C@@H](O)C(=O)O)c1nc(-c2ccccc2Cl)no1` [Example 12-26, (2R,4R)-5-Biphenyl-4-yl-4-{[3-(2-chlorophenyl)-[1,2,4]oxadiazole-5-carbonyl]-amino}-2-hydroxy-pentanoic acid], the inhibitory constant (Ki) was 1.26 to 10 nM.

As for `O=C(N[C@H](Cc1ccc(-c2ccccc2)cc1)C[C@@H](O)C(=O)O)c1noc(=O)[nH]1` [Example 12-27, (2R,4R)-5-Biphenyl-4-yl-2-hydroxy-4-[(5-oxo-4,5-dihydro-[1,2,4]oxadiazole-3-carbonyl)-amino]-pentanoic acid], the pKi was at least 9.0.

Take `O=C(O)c1cnc(C(=O)N[C@H](Cc2ccc(-c3ccccc3)cc2)CC(O)C(=O)O)cn1` (stereo partly drawn) [Example 13-1, 5-((R)-1-Biphenyl-4-ylmethyl-3-carboxy-3-hydroxypropylcarbamoyl)-pyrazine-2-carboxylic acid]: the inhibition constant Ki was 1.26 to 10 nM.

With `O=C(O)c1ccc(C(=O)N[C@H](Cc2ccc(-c3ccccc3)cc2)CC(O)C(=O)O)nn1` (stereo partly drawn) [Example 13-3, 6-((R)-1-Biphenyl-4-ylmethyl-3-carboxy-3-hydroxypropylcarbamoyl)-pyridazine-3-carboxylic acid], the Ki is 12.6 to 100 nM.

On to `O=C(N[C@H](Cc1ccc(-c2ccccc2)cc1)CC(O)C(=O)O)c1ccc(O)nn1` (stereo partly drawn) [Example 13-5, (R)-5-Biphenyl-4-yl-2-hydroxy-4-[(6-hydroxypyridazine-3-carbonyl)-amino]-pentanoic acid], for which the Ki was 12.6 to 100 nM.

As for `O=C1CCC(C(=O)N[C@H](Cc2ccc(-c3ccccc3)cc2)CC(O)C(=O)O)=NN1` (stereo partly drawn) [Example 13-6, (R)-5-Biphenyl-4-yl-2-hydroxy-4-[(6-oxo-1,4,5,6-tetrahydro-pyridazine-3-carbonyl)-amino]-pentanoic acid], the inhibition constant Ki was 12.6 to 100 nM.

For the compound `O=C(O)c1ccc(C(=O)N[C@H](Cc2ccc(-c3ccccc3)cc2)CC(O)C(=O)O)nc1` (stereo partly drawn) [Example 13-7, 6-((R)-1-Biphenyl-4-ylmethyl-3-carboxy-3-hydroxypropylcarbamoyl)nicotinic acid], the Ki was 12.6 to 100 nM.

On to `O=C(N[C@H](Cc1ccc(-c2ccccc2)cc1)CC(O)C(=O)O)c1ccc(C(=O)O)nc1` (stereo partly drawn) [Example 13-8, 5-((R)-1-Biphenyl-4-ylmethyl-3-carboxy-3-hydroxypropylcarbamoyl)-pyridine-2-carboxylic acid], for which the Ki was 12.6 to 100 nM.

Consider `O=C(N[C@H](Cc1ccc(-c2ccccc2)cc1)CC(O)C(=O)O)c1cc[nH]n1` (stereo partly drawn) [Example 15-1, (R)-5-Biphenyl-4-yl-2-hydroxy-4-[(1H-pyrazole-3-carbonyl)amino]pentanoic acid], for which the inhibition constant (Ki) was 12.6 to 100 nM.

In the case of `O=C(O)Cc1cc(C(=O)N[C@H](Cc2ccc(-c3ccccc3)cc2)C[C@@H](O)C(=O)O)n[nH]1` [Example 15-2, (2R,4R)-5-Biphenyl-4-yl-4-[(5-carboxymethyl-1H-pyrazole-3-carbonyl)amino]-2-hydroxy-pentanoic acid], the Ki is 1.26 to 10 nM.

Turning to `O=C(N[C@H](Cc1ccc(-c2ccccc2)cc1)C[C@@H](O)C(=O)O)c1cc(CO)[nH]n1` [Example 15-3, (2R,4R)-5-Biphenyl-4-yl-2-hydroxy-4-[(5-hydroxymethyl-1H-pyrazole-3-carbonyl)-amino]-pentanoic acid], the Ki is 1.26 to 10 nM.

With `COCc1cc(C(=O)N[C@H](Cc2ccc(-c3ccccc3)cc2)C[C@@H](O)C(=O)O)n[nH]1` [Example 15-4, (2R,4R)-5-Biphenyl-4-yl-2-hydroxy-4-[(5-methoxymethyl-1H-pyrazole-3-carbonyl)-amino]-pentanoic acid], the Ki was 1.26 to 10 nM.

For the compound `Cn1nc(C(=O)N[C@H](Cc2ccc(-c3ccccc3)cc2)C[C@@H](O)C(=O)O)cc1C(=O)O` [Example 15-5, 5-((1R,3R)-1-Biphenyl-4-ylmethyl-3-carboxy-3-hydroxypropylcarbamoyl)-2-methyl-2H-pyrazole-3-carboxylic acid], the pKi is listed as at least 9.0.

As to `O=C(N[C@H](Cc1ccc(-c2ccccc2)cc1)CC(O)C(=O)O)c1cc(C(=O)O)n(Cc2ccc(Cl)c(SC(F)(F)F)c2)n1` (stereo partly drawn) [Example 15-6, 5-((R)-1-Biphenyl-4-ylmethyl-3-carboxy-3-hydroxypropylcarbamoyl)-2-(4-chloro-3-trifluoromethylsulfanyl-benzyl)-2H-pyrazole-3-carboxylic acid], the Ki is 12.6 to 100 nM.
